The term IC50 denotes the concentration needed to halve the response being measured. Higher therefore signals weaker potency in that assay.

SMILES strings stand for the structures.

This assay deals with T1, MAGL (Homo sapiens, UniProt Q99685).
T1 sequence (Q99685 1-303): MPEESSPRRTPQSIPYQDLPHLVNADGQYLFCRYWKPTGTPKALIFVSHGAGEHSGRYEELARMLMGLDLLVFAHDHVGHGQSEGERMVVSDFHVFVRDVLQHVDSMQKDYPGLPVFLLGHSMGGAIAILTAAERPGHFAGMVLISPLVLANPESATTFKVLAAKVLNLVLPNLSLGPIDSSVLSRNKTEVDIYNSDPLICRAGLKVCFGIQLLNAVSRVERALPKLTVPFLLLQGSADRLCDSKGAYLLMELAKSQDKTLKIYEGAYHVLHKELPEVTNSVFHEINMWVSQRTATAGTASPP
Kind of assay: MAGL inhibition, 2-AG assay (hydrolysis of 2-arachidonoylglycerol, arachidonic acid by mass spectrometry). Particulars: 2-AG assay (footnote [b]). It is filed as biochemical. The gist of the method: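 Hydrolysis of 8 μM 2-arachidonoylglycerol by […] was run for 30 min at RT after a 15 min compound preincubation, in Tris/EDTA/Tween buffer. Test compounds spanned […]. The product was measured by online SPE-MS/MS (transitions 303.1→259.1 and 311.1→267.0), and activity was derived from the arachidonic acid/d8-arachidonic acid signal ratio.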
Consider `O=C1CO[C@H]2CCN(C(=O)N3CC(c4ccc(S(F)(F)(F)(F)F)cc4)C3)C[C@H]2N1` [Example 180, (4aR,8aS)-6-(3-(4-(Pentafluoro-16-sulfaneyl)phenyl)azetidine-1-carbonyl)hexahydro-2H-pyrido[4,3-b][1,4]oxazin-3(4H)-one], for which half-maximal inhibition (IC50) was put at 9 nM. For `CC(Oc1ccc(C(F)(F)F)cc1)C1CN(C(=O)N2CC[C@@H]3OCC(=O)N[C@@H]3C2)C1` (single isomer, unassigned) [Example 99, (4aR,8aS)-6-(3-((S or R)-1-(4-(Trifluoromethyl)phenoxy)ethyl)azetidine-1-carbonyl)hexahydro-2H-pyrido[4,3-b][1,4]oxazin-3(4H)-one], half-maximal inhibition (IC50) was put at 27 nM. Next, `CC1(C)COc2cc(C3CN(C(=O)N4CC[C@@H]5OCC(=O)N[C@@H]5C4)C3)ccc21` [Example 232, (4aR,8aS)-6-(3-(3,3-Dimethyl-2,3-dihydrobenzofuran-6-yl)azetidine-1-carbonyl)hexahydro-2H-pyrido[4,3-b][1,4]oxazin-3(4H)-one]: 7 nM. `Cc1noc(CC(c2ccc(F)cc2)C2CCN(C(=O)N3CC[C@@H]4OCC(=O)N[C@@H]4C3)CC2)n1` (single isomer, unassigned) [Example 59, (4aR,8aS)-6-(4-((R or S)-1-(4-Fluorophenyl)-2-(3-methyl-1,2,4-oxadiazol-5-yl)ethyl)piperidine-1-carbonyl)hexahydro-2H-pyrido[4,3-b][1,4]oxazin-3(4H)-one] showed an IC50 of 60 nM.

For `Cc1cccc(-c2ccc(C3CN(C(=O)N4CC[C@@H]5OCC(=O)N[C@@H]5C4)C3)cc2)c1` [Example 143, (4aR,8aS)-6-(3-(3′-Methyl-[1,1′-biphenyl]-4-yl)azetidine-1-carbonyl)hexahydro-2H-pyrido[4,3-b][1,4]oxazin-3(4H)-one], the IC50 was determined as 1 nM. The figure for `O=C1CO[C@H]2CCN(C(=O)N3CC(c4ccc(-c5ccc(Cl)cc5Cl)cc4)C3)C[C@H]2N1` [Example 113, (4aR,8aS)-6-(3-(2′,4′-Dichloro-[1,1′-biphenyl]-4-yl)azetidine-1-carbonyl)hexahydro-2H-pyrido[4,3-b][1,4]oxazin-3(4H)-one] is 0.04 nM; for `O=C1CO[C@H]2CCN(C(=O)N3CC(c4ccc(-c5ccc(Cl)cc5)cc4)C3)C[C@H]2N1` [Example 111, (4aR,8aS)-6-(3-(4′-Chloro-[1,1′-biphenyl]-4-yl)azetidine-1-carbonyl)hexahydro-2H-pyrido[4,3-b][1,4]oxazin-3(4H)-one] it is 0.4 nM.

`O=C1CO[C@H]2CCN(C(=O)N3CC(C(OCC(F)(F)F)c4ccc(F)cc4)C3)C[C@H]2N1` (single isomer, unassigned) [Example 105, (4aR,8aS)-6-[3-(S or R)-[(4-Fluorophenyl)-(2,2,2-trifluoroethoxy)methyl]azetidine-1-carbonyl]-4,4a,5,7,8,8a-hexahydropyrido[4,3-b][1,4]oxazin-3-one] had a half-inhibitory concentration (IC50) of 434 nM. In turn, `COC1(C)CN(c2ccc(C3CN(C(=O)N4CC[C@@H]5OCC(=O)N[C@@H]5C4)C3)cc2)C1` [Example 236, (4aR,8aS)-6-(3-(4-(3-Methoxy-3-methylazetidin-1-yl)phenyl)azetidine-1-carbonyl)hexahydro-2H-pyrido[4,3-b][1,4]oxazin-3(4H)-one] returned an IC50 of 15 nM. For `CC1(c2ccc(Br)cc2)CN(C(=O)N2CC[C@@H]3OCC(=O)N[C@@H]3C2)C1` [Example 124, (4aR,8aS)-6-(3-(4-Bromophenyl)-3-methylazetidine-1-carbonyl)hexahydro-2H-pyrido[4,3-b][1,4]oxazin-3(4H)-one], the midpoint of inhibition, the IC50, lay at 113 nM. Next, `O=C1CO[C@H]2CCN(C(=O)N3CC(c4ccc(Cl)cn4)C3)C[C@H]2N1` [Example 181, (4aR,8aS)-6-(3-(5-Chloropyridin-2-yl)azetidine-1-carbonyl)hexahydro-2H-pyrido[4,3-b][1,4]oxazin-3(4H)-one]: 593 nM; `O=C1CO[C@H]2CCN(C(=O)N3CCC(c4cccc(Br)c4)C3)C[C@H]2N1` (stereo partly drawn) [Example 164, (4aR,8aS)-6-(3-(3-Bromophenyl)pyrrolidine-1-carbonyl)hexahydro-2H-pyrido[4,3-b][1,4]oxazin-3(4H)-one]: 82 nM; `O=C1CO[C@H]2CCN(C(=O)N3CCC(C4(c5ccc(C(F)(F)F)cc5)CC4)CC3)C[C@H]2N1` [Example 52, (4aR,8aS)-6-(4-(1-(4-(Trifluoromethyl)phenyl)cyclopropyl)piperidine-1-carbonyl)hexahydro-2H-pyrido[4,3-b][1,4]oxazin-3(4H)-one]: 21 nM.

`Cc1noc(CC(c2ccc(F)cc2)C2CCN(C(=O)N3CC[C@@H]4OCC(=O)N[C@@H]4C3)CC2)n1` (single isomer, unassigned) [Example 60, (4aR,8aS)-6-(4-((S or R)-1-(4-Fluorophenyl)-2-(3-methyl-1,2,4-oxadiazol-5-yl)ethyl)piperidine-1-carbonyl)hexahydro-2H-pyrido[4,3-b][1,4]oxazin-3(4H)-one] came in with an IC50 of 67 nM. Compared with the last compound, the IC50 is about 3.2-fold higher.

Regarding `O=C1CO[C@H]2CCN(C(=O)N3CCC(c4ccc(Br)cc4)C3)C[C@H]2N1` (stereo partly drawn) [Example 184, (4aR,8aS)-6-(3-(4-Bromophenyl)pyrrolidine-1-carbonyl)hexahydro-2H-pyrido[4,3-b][1,4]oxazin-3(4H)-one], inhibition was half-maximal at 146 nM (IC50). Compared with the last compound, the IC50 is about 2.2-fold higher. As for `O=C1CO[C@H]2CCN(C(=O)N3CC(c4ccc(OC(F)(F)F)cc4F)C3)C[C@H]2N1` [Example 182, (4aR,8aS)-6-(3-(2-Fluoro-4-(trifluoromethoxy)phenyl)azetidine-1-carbonyl)hexahydro-2H-pyrido[4,3-b][1,4]oxazin-3(4H)-one], the IC50 came to 8 nM. `O=C1CO[C@H]2CCN(C(=O)N3CC(c4cc(F)c(OC(F)(F)F)c(F)c4)C3)C[C@H]2N1` [Example 204, (4aR,8aS)-6-(3-(3,5-Difluoro-4-(trifluoromethoxy)phenyl)azetidine-1-carbonyl)hexahydro-2H-pyrido[4,3-b][1,4]oxazin-3(4H)-one] registered an IC50 of 10 nM. `CS(=O)(=O)c1cccc(C(c2ccccn2)C2CCN(C(=O)N3CC[C@@H]4OCC(=O)N[C@@H]4C3)CC2)c1` (single isomer, unassigned) [Example 190, (4aR,8aS)-6-[4-[(S or R)-(3-methylsulfonylphenyl)-(2-pyridyl)methyl]piperidine-1-carbonyl]-4,4a,5,7,8,8a-hexahydropyrido[4,3-b][1,4]oxazin-3-one] returned an IC50 of 261 nM. In the case of `COC1CN(c2ccc(C3CN(C(=O)N4CC[C@@H]5OCC(=O)N[C@@H]5C4)C3)cc2)C1` [Example 128, (4aR,8aS)-6-(3-(4-(3-Methoxyazetidin-1-yl)phenyl)azetidine-1-carbonyl)hexahydro-2H-pyrido[4,3-b][1,4]oxazin-3(4H)-one], half-maximal inhibition (IC50) was put at 45 nM.

In turn, `CC(OC1CN(C(=O)N2CC[C@@H]3OCC(=O)N[C@@H]3C2)C1)c1ccc(C(F)(F)F)cc1` (single isomer, unassigned) [Example 114, (4aR,8aS)-6-(3-(1-(R or S)-(4-(Trifluoromethyl)phenyl)ethoxy)azetidine-1-carbonyl)hexahydro-2H-pyrido[4,3-b][1,4]oxazin-3(4H)-one] came in with an IC50 of 49 nM.

`O=C1CO[C@H]2CCN(C(=O)N3CCC(c4cn(Cc5ccccc5)c5ccc(Cl)cc45)C3)C[C@H]2N1` (stereo partly drawn) [Example 209, (4aR,8aS)-6-(3-(1-Benzyl-5-chloro-1H-indol-3-yl)pyrrolidine-1-carbonyl)hexahydro-2H-pyrido[4,3-b][1,4]oxazin-3(4H)-one] registered a half-maximal inhibitory concentration (IC50) of 0.8 nM. Take `O=C1CO[C@H]2CCN(C(=O)N3CCC(C(c4ccccc4)c4cccc(OCCF)c4)CC3)C[C@H]2N1` (single isomer, unassigned) [Example 108, (4aR,8aS)-6-(4-((R or S)-(3-(2-Fluoroethoxy)phenyl)(phenyl)methyl)piperidine-1-carbonyl)hexahydro-2H-pyrido[4,3-b][1,4]oxazin-3(4H)-one]: the IC50 amounted to 0.4 nM. On to `CC(OC1CN(c2ccc(C3CN(C(=O)N4CC[C@@H]5OCC(=O)N[C@@H]5C4)C3)cc2)C1)C(F)(F)F` (single isomer, unassigned) [Example 160, (4aR,8aS)-6-[3-[4-[3-[(1S or 1R)-2,2,2-Trifluoro-1-methyl-ethoxy]azetidin-1-yl]phenyl]azetidine-1-carbonyl]-4,4a,5,7,8,8a-hexahydropyrido[4,3-b][1,4]oxazin-3-one], for which half-maximal inhibition (IC50) required 1 nM. With `CC(C)(c1ccc(C2CN(C(=O)N3CC[C@@H]4OCC(=O)N[C@@H]4C3)C2)cc1)C(F)(F)F` [Example 245, (4aR,8aS)-6-[3-[4-(2,2,2-Trifluoro-1,1-dimethyl-ethyl)phenyl]azetidine-1-carbonyl]-4,4a,5,7,8,8a-hexahydropyrido[4,3-b][1,4]oxazin-3-one], 0.4 nM corresponded to half-maximal inhibition (IC50). In turn, `O=C1CO[C@H]2CCN(C(=O)N3CCC(C(c4ccccc4)c4ccc(OCCF)cc4)CC3)C[C@H]2N1` (single isomer, unassigned) [Example 70, (4aR,8aS)-6-[4-[(R or S)-[4-(2-Fluoroethoxy)phenyl]-phenylmethyl]piperidine-1-carbonyl]-4,4a,5,7,8,8a-hexahydropyrido[4,3-b][1,4]oxazin-3-one] yielded an IC50 of 4 nM.

These data come from patent publication US20230117324A1, “OXAZINE MONOACYLGLYCEROL LIPASE (MAGL) INHIBITORS” (Hoffmann-La Roche Inc., priority 2018, published 2023).
